Experimental data as given in patent publication US8778954B2, “Phenylpyridine derivative and medicinal agent comprising same” (Kowa Company, Ltd., priority 2009, dated 2014).

Tests used:
[1] = system: spontaneously hypertensive rats (SHR); assay: Hypotensive activity with tail cuff method in spontaneously hypertensive rats; assay type: in vivo, rat; settings: 3 and 10 mg/kg orally once a day for 7 days, 4, 24 and 72 hours after final administration, FIG. 1
Experimental: By using 19-week old spontaneously hypertensive rats (SHR), the body weight and the systolic blood pressure (SBP) of each rat were measured before administration of the medicine, and group separation was performed by blocking assignment so that there was no variation of these values between respective groups. Solvent control (0.5% methyl cellulose solution, MC), 3 mg/kg telmisartan, 3 and 10 mg/kg of the compound of Example 21, and 3 and 10 mg/kg of the compound of Example 23 were orally administered iteratively for 7 days, once a day. The blood pressure and the heart beat rate were measured with tail cuff method at 4, 24, and 72 hours after the administration of the final administration day. Specifically, the rat was put into a cylindrical positioner, maintained at 37° C., and the blood pressure and the heart beat rate were measured from the tail of the rat during the resting state using a non-invasive blood pressure meter (trade name: BP-98A, manufactured by Softron Co., Ltd., Tokyo, Japan). The blood pressure and the heart beat rate were measured for each individual three times or more in a row. When the difference of the systolic blood pressures between the consecutive measurement values was 5 mmHg or less, the average values of these measurement values were taken as data, except for the first measurement. […]

db/db mice = assay: Impaired glucose tolerance improving activity in type 2 diabetes model mouse; assay type: in vivo; settings: oral once a day, Example 23 10 mg/kg, Example 21 30 mg/kg, telmisartan 30 mg/kg; for plasma glucose concentration: 2 weeks after initiation, FIG. 2; for AUC of plasma glucose in the glucose tolerance test (120 minutes after glucose solution): 4 weeks, glucose 2 g/kg, FIG. 3
Experimental: By using 7-week old db/db mice, the body weight and the plasma glucose concentration of each mouse were measured before administration of the medicine, and group separation was performed by blocking assignment so that there was no variation of these values between respective groups. Solvent control (0.5% MC), 5 mg/kg rosiglitazone, 30 mg/kg telmisartan, 10 mg/kg of the compound of Example 23, and 30 mg/kg of the compound of Example 21 were orally administered iteratively for 4 weeks, once a day. Blood collecting was performed from the orbital vein plexus, and the plasma glucose concentration was measured at 2 weeks after the initiation of the administration. Furthermore, oral glucose tolerance test was performed at 4 weeks after the initiation of the administration. Specifically, the mouse was fasted for 24 hours from the night before the glucose tolerance test, and then a glucose solution was orally administered at a dose of 2 g/kg. The blood was collected from the tail vein of the mouse at 15, 30, 60, and 120 minutes after the administration of the glucose solution, and the concentration of the plasma glucose was measured. The area surrounded with the measured plasma glucose concentration and the time was taken as the area under the curve (AUC), and AUC for 120 minutes after administration of the glucose solution was estimated from the trapezoidal method.
Vehicle, Rosiglitazone, Telmisartan, Compound 23, and Compound 21 in FIGS. 2 and 3 represent solvent control, rosiglitazone, telmisartan, the compound of Example 23, and the compound of Example 21, respectively. The vertical axis of FIG. 2 represents the plasma glucose concentration. The data in FIG. 2 represents individual values and average values of each individual. The vertical axis of FIG. 3 represents the area under the curve surrounded with the plasma glucose concentration and the time (for 120 minutes after administration of the glucose solution). The data in FIG. 3 represents individual values and average values of each individual. […] Such activities were not confirmed for the telmisartan administration group.

Compound | blood pressure lowering activity (change in systolic blood pressure from pre-administration) [1] | plasma glucose concentration (db/db mice) | AUC of plasma glucose in the glucose tolerance test (120 minutes after glucose solution) (db/db mice)
CCCCc1nc(C(C)C)n(-c2ncc(OCC)cn2)c(=O)c1Cc1ccc(-c2ccccc2-c2noc(=O)[nH]2)nc1 [Example 21, 3-{2-{5-{[4-butyl-1-(5-ethoxypyrimidin-2-yl)-2-isopropyl-6-oxo-1,6-dihydropyrimidin-5-yl]methyl}pyridin-2-yl}phenyl}-1,2,4-oxadiazol-5(4H)-one] | potent blood pressure lowering activity dose-dependently that was equivalent or more to telmisartan | remarkable lowering activity of the plasma glucose concentration | remarkably lowering AUC
CCCCc1nc(C2CC2)n(-c2ncc(OCC)cn2)c(=O)c1Cc1ccc(-c2ccccc2-c2noc(=O)[nH]2)nc1 [Example 23, 3-{2-{5-{[4-butyl-2-cyclopropyl-1-(5-ethoxypyrimidin-2-yl)-6-oxo-1,6-dihydropyrimidin-5-yl]methyl}pyridin-2-yl}phenyl}-1,2,4-oxadiazol-5(4H)-one] | potent blood pressure lowering activity dose-dependently that was equivalent or more to telmisartan | remarkable lowering activity of the plasma glucose concentration | remarkably lowering AUC
